The target of the test is T1, hTLR7 (Homo sapiens, UniProt Q9NYK1).
T1 sequence (Q9NYK1 27-1049): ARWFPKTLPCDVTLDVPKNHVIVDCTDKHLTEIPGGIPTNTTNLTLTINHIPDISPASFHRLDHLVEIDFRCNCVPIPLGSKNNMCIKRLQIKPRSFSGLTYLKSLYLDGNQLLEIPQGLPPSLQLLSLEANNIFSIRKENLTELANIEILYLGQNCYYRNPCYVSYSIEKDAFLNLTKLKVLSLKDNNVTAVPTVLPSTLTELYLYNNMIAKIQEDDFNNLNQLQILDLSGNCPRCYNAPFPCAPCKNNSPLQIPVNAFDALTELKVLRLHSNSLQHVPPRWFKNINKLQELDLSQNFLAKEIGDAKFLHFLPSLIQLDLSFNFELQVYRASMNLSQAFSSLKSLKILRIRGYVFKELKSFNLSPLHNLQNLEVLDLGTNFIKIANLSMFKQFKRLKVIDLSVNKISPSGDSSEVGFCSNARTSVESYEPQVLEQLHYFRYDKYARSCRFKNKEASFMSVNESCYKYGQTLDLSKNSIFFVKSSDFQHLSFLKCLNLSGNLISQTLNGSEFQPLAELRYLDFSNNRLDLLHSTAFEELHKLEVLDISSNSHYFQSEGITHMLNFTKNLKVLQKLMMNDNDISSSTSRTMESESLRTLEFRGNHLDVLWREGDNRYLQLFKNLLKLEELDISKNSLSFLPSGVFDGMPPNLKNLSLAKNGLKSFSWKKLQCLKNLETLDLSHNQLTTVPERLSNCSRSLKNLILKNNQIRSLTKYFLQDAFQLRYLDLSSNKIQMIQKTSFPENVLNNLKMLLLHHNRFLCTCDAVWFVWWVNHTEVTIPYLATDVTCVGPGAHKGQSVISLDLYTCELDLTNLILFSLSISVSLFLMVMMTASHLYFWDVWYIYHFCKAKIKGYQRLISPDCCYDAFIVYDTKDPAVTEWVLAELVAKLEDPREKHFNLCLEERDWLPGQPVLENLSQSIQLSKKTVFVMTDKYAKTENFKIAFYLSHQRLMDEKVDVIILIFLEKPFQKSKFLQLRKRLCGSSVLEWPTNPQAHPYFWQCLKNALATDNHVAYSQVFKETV
In words: HEK293-Blue-hTLR-7 cells assay (SEAP reporter, R848 stimulation). The settings on record: HEK293-Blue-hTLR7 cells, R848, 20 hrs; read-out: HEK/hTLR7 IC50. Format: cell-based. Details: host or cells: HEK293 (HEK-Blue). The source says:
A stable HEK293-Blue-hTLR-7 cell line was purchased from InvivoGen (Cat.#: hkb-htlr7, San Diego, California, USA). These cells were originally designed for studying the stimulation of human TLR7 by monitoring the activation of NF-κB. A SEAP (secreted embryonic alkaline phosphatase) reporter gene was placed under the control of the IFN-β minimal promoter fused to five NF-κB and AP-1-binding sites. The SEAP was induced by activating NF-xB and AP-1 via stimulating HEK-Blue hTT,R7 cells with TLR7 ligands. Therefore, the reporter expression was declined by TLR7 antagonist under the stimulation of a ligand, such as R848 (Resiquimod), for incubation of 20 hrs. The cell culture supernatant SEAP reporter activity was determined using QUANTI-Blue™ kit (Cat.#: rep-qb1, Invivogen, San Diego, Ca, USA) at a wavelength of 640 nm, a detection medium that turns purple or blue in the presence of alkaline phosphatase.
HEK293-Blue-hTLR7 cells were incubated at a density of 250,000-450,000 cells/mL in a volume of 170 µL in a 96-well plate in Dulbecco's Modified Eagle's medium (DMEM) containing 4.5 g/L glucose, 50 U/mL penicillin, […], […], 2 mM L-glutamine, 10% (v/v) heat-inactivated fetal bovine serum with addition of 20 µL test compound in a serial dilution in the presence of final DMSO at 1% and 10 µL of 20uM R848 in above DMEM, perform incubation under 37 °C in a CO2 incubator for 20 hrs. Then 20 µL of the supernatant from each well was incubated with 180 µL Quanti-blue substrate solution at 37 °C for 2 hrs and the absorbance was read at 620-655 nm using a spectrophotometer. The signaling pathway that TLR7 activation leads to downstream NF-xB activation has been widely accepted, and therefore similar reporter assay was modified for evaluating TLR7 antagonist.

As to `C[C@@H]1CN(c2ccc(C#N)c3ncccc23)C[C@H](CN2CCC(Nc3ccc4c(c3)CNC4)C2)O1` (stereo partly drawn) [Example 38, 5-[(2S,6R)-2-[[3-(isoindolin-5-ylamino)pyrrolidin-1-yl]methyl]-6-methyl-morpholin-4-yl]quinoline-8-carbonitrile], the IC50 was 65 nM.
Then `C[C@@H]1CN(c2ccc(C#N)c3ncccc23)C[C@H](CN2CCCN(c3ncc4c(n3)CCNC4)CC2)O1` [Example 39, 5-[(2R,6S)-2-methyl-6-[[4-(5,6,7,8-tetrahydropyrido[4,3-d]pyrimidin-2-yl)-1,4-diazepan-1-yl]methyl]morpholin-4-yl]quinoline-8-carbonitrile], with 8 nM; and `C[C@@H]1CN(c2ccc(C#N)c3ncccc23)C[C@H](CN2CCN(c3cnc4c(n3)CNCC4)CC2)O1` [Example 40, 5-[(2R,6S)-2-methyl-6-[[4-(5,6,7,8-tetrahydropyrido[3,4-b]pyrazin-3-yl)piperazin-1-yl]methyl]morpholin-4-yl]quinoline-8-carbonitrile], with 7 nM; and `CC1NCc2ncc(N3CCN(C[C@H]4CN(c5ccc(C#N)c6ncccc56)C[C@@H](C)O4)CC3)cc21` (stereo partly drawn) [Example 41, 5-[(2R,6S)-2-methyl-6-[[4-(5-methyl-6,7-dihydro-5H-pyrrolo[3,4-b]pyridin-3-yl)piperazin-1-yl]methyl]morpholin-4-yl]quinoline-8-carbonitrile], with 28 nM.
Under `C[C@@H]1CN(c2ccc(C#N)c3ncccc23)C[C@H](CNC2CN(c3cnc4c(c3)CNC4)C2)O1` [Example 43, 5-[(2S,6R)-2-[[[1-(6,7-dihydro-5H-pyrrolo[3,4-b]pyridin-3-yl)azetidin-3-yl]amino]methyl]-6-methyl-morpholin-4-yl]quinoline-8-carbonitrile] stands 130 nM; under `C[C@@H]1CN(c2ccc(C#N)c3ncccc23)C[C@H](CN2CC3(C2)CN(c2ccc4c(c2)CCNC4)CCO3)O1` [Example 44, 5-[(2R,6S)-2-methyl-6-[[8-(1,2,3,4-tetrahydroisoquinolin-6-yl)-5-oxa-2,8-diazaspiro[3.5]nonan-2-yl]methyl]morpholin-4-yl]quinoline-8-carbonitrile], 11 nM; under `C[C@@H]1CN(c2ccc(C#N)c3ncccc23)C[C@H](CN2CC3(C2)CN(c2ccc4c(n2)CNCC4)CCO3)O1` [Example 45, 5-[(2R,6S)-2-methyl-6-[[8-(5,6,7,8-tetrahydro-1,7-naphthyridin-2-yl)-5-oxa-2,8-diazaspiro[3.5]nonan-2-yl]methyl]morpholin-4-yl]quinoline-8-carbonitrile], 9 nM.
Under `C[C@@H]1CN(c2ccc(C#N)c3ncccc23)C[C@H](CN2CC3(C2)CN(c2cnc4c(c2)CCNC4)CCO3)O1` [Example 46, 5-[(2R,6S)-2-methyl-6-[[8-(5,6,7,8-tetrahydro-1,7-naphthyridin-3-yl)-5-oxa-2,8-diazaspiro[3.5]nonan-2-yl]methyl]morpholin-4-yl]quinoline-8-carbonitrile] stands 12 nM; under `C[C@@H]1CN(c2ccc(C#N)c3ncccc23)C[C@H](CN2CC3(C2)CN(c2cnc4c(c2)CNCC4)CCO3)O1` [Example 47, 5-[(2R,6S)-2-methyl-6-[[8-(5,6,7,8-tetrahydro-1,6-naphthyridin-3-yl)-5-oxa-2,8-diazaspiro[3.5]nonan-2-yl]methyl]morpholin-4-yl]quinoline-8-carbonitrile], 12 nM; under `C[C@@H]1CN(c2ccc(C#N)c3ncccc23)C[C@H](CN2CC3(C2)CN(c2cc4c(cn2)CCNC4)CCO3)O1` [Example 48, 5-[(2R,6S)-2-methyl-6-[[8-(5,6,7,8-tetrahydro-2,6-naphthyridin-3-yl)-5-oxa-2,8-diazaspiro[3.5]nonan-2-yl]methyl]morpholin-4-yl]quinoline-8-carbonitrile], 5 nM.
Consider `C[C@@H]1CN(c2ccc(C#N)c3ncccc23)C[C@H](CN2CC3(C2)CN(c2ccc4c(n2)CCNC4)CCO3)O1` [Example 49, 5-[(2R,6S)-2-methyl-6-[[8-(5,6,7,8-tetrahydro-1,6-naphthyridin-2-yl)-5-oxa-2,8-diazaspiro[3.5]nonan-2-yl]methyl]morpholin-4-yl]quinoline-8-carbonitrile], for which the IC50 worked out at 5 nM.
Then `C[C@@H]1CN(c2ccc(C#N)c3ncccc23)C[C@H](CN2CC3(C2)CN(c2cnc4c(n2)CCNC4)CCO3)O1` [Example 50, 5-[(2R,6S)-2-methyl-6-[[8-(5,6,7,8-tetrahydropyrido[3,4-b]pyrazin-2-yl)-5-oxa-2,8-diazaspiro [3.5]nonan-2-yl]methyl]morpholin-4-yl] quinoline-8-carbonitrile], with 4 nM; and `C[C@@H]1CN(c2ccc(C#N)c3ncccc23)C[C@H](CN2CC3(C2)CN(c2ncc4c(n2)CCNC4)CCO3)O1` [Example 51, 5-[(2R,6S)-2-methyl-6-[[8-(5,6,7,8-tetrahydropyrido[4,3-d]pyrimidin-2-yl)-5-oxa-2,8-diazaspiro[3.5]nonan-2-yl]methyl]morpholin-4-yl]quinoline-8-carbonitrile], with 12 nM; and `C[C@@H]1CN(c2ccc(C#N)c3ncccc23)C[C@H](CN2C[C@@H]3[C@@H](C2)OCCN3c2cnc3c(c2)CCNC3)O1` [Example 52, 5-[(2S,6R)-2-[[(4aR,7aR)-4-(5,6,7,8-tetrahydro-1,7-naphthyridin-3-yl)-2,3,4a,5,7,7a-hexahydropyrrolo[3,4-b][1,4]oxazin-6-yl]methyl]-6-methylmorpholin-4-yl]quinoline-8-carbonitrile], with < 3 nM.
Then `C[C@@H]1CN(c2ccc(C#N)c3ncccc23)C[C@H](CN2CCN(c3cnc4c(c3)CNCC4)C(C)(C)C2)O1` [Example 56, 5-[(2S,6R)-2-[[3,3-dimethyl-4-(5,6,7,8-tetrahydro-1,6-naphthyridin-3-yl)piperazin-1-yl]methyl]-6-methyl-morpholin-4-yl]quinoline-8-carbonitrile], with 12 nM; and `C[C@@H]1CN(c2ccc(C#N)c3ncccc23)C[C@H](CN2CCC(Nc3ncc4c(n3)CCNC4)C2)O1` (stereo partly drawn) [Example 57, 5-[(2R,6S)-2-methyl-6-[[3-(5,6,7,8-tetrahydropyrido [4,3-d]pyrimidin-2-ylamino)pyrrolidin-1-yl]methyl]morpholin-4-yl] quinoline-8-carbonitrile], with 20 nM.
Consider `COC1CNCc2ccc(N3CCN(C[C@H]4CN(c5ccc(C#N)c6ncccc56)C[C@@H](C)O4)CC3)cc21` (stereo partly drawn) [Example 58, 5-[(2S,6R)-2-[[4-(4-methoxy-1,2,3,4-tetrahydroisoquinolin-6-yl)piperazin-1-yl]methyl]-6-methyl-morpholin-4-yl]quinoline-8-carbonitrile], for which the IC50 amounted to 16 nM.
Under `C[C@@H]1CN(c2ccc(C#N)c3ncccc23)C[C@H](CN2CCN(c3ccc4c(c3)C(O)CN(C)C4)CC2)O1` (stereo partly drawn) [Example 59, 5-[(2S,6R)-2-[[4-(4-hydroxy-2-methyl-3,4-dihydro-1H-isoquinolin-6-yl)piperazin-1-yl]methyl]-6-methyl-morpholin-4-yl]quinoline-8-carbonitrile] stands 41 nM; under `Cc1nc2c(nc1N1CCN(C[C@H]3CN(c4ccc(C#N)c5ncccc45)C[C@@H](C)O3)CC1)CCNC2` [Example 60, 5-[(2R,6S)-2-methyl-6-[[4-(3-methyl-5,6,7,8-tetrahydropyrido[3,4-b]pyrazin-2-yl)piperazin-1-yl]methyl]morpholin-4-yl]quinoline-8-carbonitrile], 11 nM.

For the origin of these results see EP3807270B1, “NOVEL HETEROARYL HETEROCYCLYL COMPOUNDS FOR THE TREATMENT OF AUTOIMMUNE DISEASE” (F. Hoffmann-La Roche AG, priority 2018, dated 2019).
